# Assay results taken from PubChem BioAssay (NCI).
#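 Compound exposure: 48 hours, 5 concentrations, 96-well plates. The concentration for 50% growth inhibition is given as GI50. TGI marks complete inhibition of growth.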
# Columns and labels:
# Assay in all cases: NCI tumour cell line growth inhibition, 48 h
# CCRF-CEM leukemia = test system: CCRF-CEM leukemia
# EKVX NSCLC = test system: EKVX NSCLC
# HOP-62 NSCLC = test system: HOP-62 NSCLC
# HOP-92 NSCLC = test system: HOP-92 NSCLC
# M14 melanoma = test system: M14 melanoma
# MCF7 breast = test system: MCF7 breast
# MDA-MB-231 breast = test system: MDA-MB-231 breast
# MDA-MB-435 = test system: MDA-MB-435
# RPMI-8226 leukemia = test system: RPMI-8226 leukemia
# RXF 393 renal = test system: RXF 393 renal
Compound,GI50 (CCRF-CEM leukemia) [µM],TGI (CCRF-CEM leukemia) [µM],GI50 (EKVX NSCLC) [µM],TGI (EKVX NSCLC) [µM],GI50 (HOP-62 NSCLC) [µM],TGI (HOP-62 NSCLC) [µM],GI50 (HOP-92 NSCLC) [µM],TGI (HOP-92 NSCLC) [µM],GI50 (M14 melanoma) [µM],TGI (M14 melanoma) [µM],GI50 (MCF7 breast) [µM],TGI (MCF7 breast) [µM],GI50 (MDA-MB-231 breast) [µM],TGI (MDA-MB-231 breast) [µM],GI50 (MDA-MB-435) [µM],TGI (MDA-MB-435) [µM],GI50 (RPMI-8226 leukemia) [µM],TGI (RPMI-8226 leukemia) [µM],GI50 (RXF 393 renal) [µM],TGI (RXF 393 renal) [µM]
Cc1cccc2c1ccc1c3occ(C)c3c(=O)oc21,> 100,> 100,76.6,> 100,> 100,> 100,49.9,> 100,> 100,> 100,23.4,> 100,> 100,> 100,> 100,> 100,> 100,> 100,–,–
CS(=O)(=O)c1ccc(-c2[nH]c3ccc(F)cc3c2/C=N/NC(N)=S)cc1,0.366,27.2,3.94,> 100,1.64,> 100,0.574,52.9,0.312,22.3,2.1,18.7,1.65,> 100,–,–,0.475,6.64,1.21,63.1
COc1ccc2cc(C(=O)/C=C/c3ccco3)ccc2c1,–,–,6.33,26.2,–,–,62.6,> 100,0.19,12.6,–,–,29.2,> 100,34.2,> 100,32,99.3,15.9,38.7
O=C1CCCC(=O)C1C(=O)c1ccc(C(F)(F)F)cc1[N+](=O)[O-],> 100,> 100,–,–,> 100,> 100,–,–,> 100,> 100,> 100,> 100,> 100,> 100,> 100,> 100,> 100,> 100,–,–
Cc1cc2c(=O)c3ccccc3oc2c(C#N)c1C,–,> 100,–,> 100,–,> 100,–,> 100,–,> 100,–,> 100,–,–,–,–,–,> 100,–,> 100
N#C/C(=C\c1ccc([N+](=O)[O-])s1)c1nc2cc(Br)ccc2s1,0.161,> 100,0.246,1.1,0.314,1.68,0.175,0.451,0.142,0.323,0.305,–,0.179,0.43,–,–,0.246,0.856,0.325,2.06
COc1cc(C2C(C(=O)OCc3ccccc3)=C(C)NC(C)=C2C(=O)OCc2ccccc2)cc(OC)c1OC,–,–,2.81,> 100,12.1,66.5,3.08,37.9,–,–,2.66,> 100,2.16,> 100,–,–,2.09,> 100,–,–
O=C(OC(CNc1c(C(=O)c2ccccc2)c(=O)n(Cc2ccccc2)c(=O)n1Cc1ccccc1)CN1CCCCC1)c1ccccc1 (centres undefined),16,40,38.3,> 100,18,33.6,–,–,16.3,31.1,20.7,39.4,17.6,32.4,18.5,37.7,13.8,31.8,14.7,29.5
Cc1nn(-c2ccccc2)c(C)c1/C=N/N1CCN(Cc2ccccc2)CC1,–,–,> 100,> 100,16.3,74.4,–,–,–,–,31,> 100,22.6,95.2,> 100,> 100,19.9,48.9,> 100,> 100
COc1ccc(C(=O)c2cc(OC)c(OC)c(OC)c2)cc1/C=C/C(=O)c1ccc2c(c1)OCO2,0.583,> 100,–,–,4.4,19.5,12,35.4,–,–,0.381,> 100,2.35,54.3,–,–,–,–,1.94,4.21
N=C(N)c1ccc(-c2ccc(-c3ccc(Cl)c(Cl)c3)o2)nc1,–,–,1.86,3.76,–,–,1.41,2.97,–,–,–,–,1.64,3.38,1.78,3.25,2.33,5.19,1.65,3.58
CCCC(=O)Nc1ncnc2c1ncn2C1OC2COP(=O)(O)OC2C1OC(=O)CCC (centres undefined),–,> 1000,> 1000,> 1000,> 1000,> 1000,–,> 1000,> 1000,> 1000,> 1000,> 1000,–,> 1000,> 1000,> 1000,–,> 1000,–,–
Cc1cn2c(/C=N/N=C(N)N)c(-c3cc(Cl)sc3Cl)nc2s1,0.76,1.57,–,–,–,–,–,–,0.874,1.56,0.777,2.04,–,–,–,–,0.792,1.73,–,–
